Reference: US10105357B2, “Indication of antibiotic drugs for preparation of cancer inhibition pharmaceutical composition” (LAUNX BIOMEDICAL CO., LTD., priority 2014, dated 2018)
Where two headings read alike, the source gives them in different places.

Legend:
Format in all cases: cell-based, human
[1] = test system: BxPC-3; test: Cell viability analysis, pancreatic cancer BxPC-3; details: for viability at 10 µM: Homo sapiens, BXPC-3, 72 h, read-out: The results of antibiotic drug inhibiting cancer cell lines (cell viability analysis), BxPC-3
[2] = test system: HL-60 (Acute Promyelocytic Leukemia); test: Cell viability analysis, leukemia HL-60; details: Homo sapiens, HL-60, 72 h, read-out: cell viability (survival rate), HL-60, drug 10 μM, 72 hours, WST-1, OD450 nm
[3] = test system: T24; test: Cell viability analysis, bladder cancer T24; details: for viability at 10 µM: Homo sapiens, T-24, 72 h, read-out: The results of antibiotic drug inhibiting cancer cell lines (cell viability analysis), T24
[4] = test system: SAS (Tongue squamous cell carcinoma); test: Cell viability analysis, tongue cancer SAS; details: for viability at 10 µM: Homo sapiens, 72 h, read-out: The results of antibiotic drug inhibiting cancer cell lines (cell viability analysis), SAS
[5] = test system: MCF7 (Mammary Gland, Adenocarcinoma); test: Cell viability analysis, breast cancer MCF7; details: for viability at 10 µM: Homo sapiens, MCF7, 72 h
[6] = test system: HI650 (Lung Adenocarcinoma); test: Cell viability analysis, lung cancer HI650; details: for viability at 10 µM: Homo sapiens, NCI-H1650, 72 h
[7] = test system: BCC (basal cell carcinoma); test: Cell viability analysis, skin cancer BCC; details: for viability at 10 µM: Homo sapiens, 72 h, read-out: The results of antibiotic drug inhibiting cancer cell lines (cell viability analysis), BCC
[8] = test system: A549 (Lung Adenocarcinoma); test: Cell viability analysis, lung cancer A549; details: for viability at 10 µM: Homo sapiens, A549, 72 h
[9] = test system: U-2OS; test: Cell viability analysis, osteosarcoma U-2OS; details: U2OS; for viability at 10 µM: Homo sapiens, 72 h, read-out: The results of antibiotic drug inhibiting cancer cell lines (cell viability analysis), U2OS
[10] = test system: TOV-21G; test: Cell viability analysis, ovarian cancer TOV-21G; details: for viability at 10 µM: Homo sapiens, TOV21G, 72 h, read-out: The results of antibiotic drug inhibiting cancer cell lines (cell viability analysis), TOV-21G
[11] = test system: MKN-45 (Gastric Adenocarcinoma); test: Cell viability analysis, gastric cancer MKN-45; details: for viability at 10 µM: Homo sapiens, MKN-45, 72 h
[12] = test system: MDA-MB-231 (Mammary Gland, Adenocarcinoma); test: Cell viability analysis, breast cancer MDA-MB-231; details: for viability at 10 µM: Homo sapiens, MDA-MB-231, 72 h, read-out: The results of antibiotic drug inhibiting cancer cell lines (cell viability analysis), MDA-MB231
[13] = test system: Hep3B (hepatocellular carcinoma); test: Cell viability analysis, hepatic cancer Hep3B; details: Hep3B; for viability at 10 µM: Homo sapiens, 72 h, read-out: The results of antibiotic drug inhibiting cancer cell lines (cell viability analysis), Hep3B
[14] = test system: AsPC-1; test: Cell viability analysis, pancreatic cancer AsPC-1; details: for viability at 10 µM: Homo sapiens, ASPC1, 72 h, read-out: The results of antibiotic drug inhibiting cancer cell lines (cell viability analysis), AsPC-1
[15] = test system: NIH: OVCAR-3; test: Cell viability analysis, ovarian cancer NIH: OVCAR-3; details: for viability at 10 µM: Homo sapiens, OVCAR-3, 72 h, read-out: The results of antibiotic drug inhibiting cancer cell lines (cell viability analysis), NIH-OVCAR-3
[16] = test system: AGS (Gastric Adenocarcinoma); test: Cell viability analysis, gastric cancer AGS; details: Homo sapiens, 72 h
[17] = test system: C-33A (Cervical carcinoma); test: Cell viability analysis, cervical cancer C-33A; details: for viability at 10 µM: Homo sapiens, C-33-A, 72 h, read-out: The results of antibiotic drug inhibiting cancer cell lines (cell viability analysis), C-33A
[18] = test system: LoVo (Colorectal Adenocarcinoma); test: Cell viability analysis, colon cancer LoVo; details: LoVo; for viability at 10 µM: Homo sapiens, 72 h
[19] = test system: TSGH-8301 (Urinary Bladder Carcinoma); test: Cell viability analysis, bladder cancer TSGH-8301; details: Homo sapiens, 72 h
[20] = test system: HeLa (Cervix Adenocarcinoma); test: Cell viability analysis, cervical cancer HeLa; details: HeLa; for viability at 10 µM: Homo sapiens, 72 h
[21] = test system: A375 (Amelanotic Melanoma); test: Cell viability analysis, skin cancer A375; details: for viability at 10 µM: Homo sapiens, A-375, 72 h
[22] = test system: cancer cell lines; test: Cell viability analysis (WST-1) on cancer cell lines; details: drug 10 μM, 72 hours, WST-1; Table 3
[23] = test system: 786-O (Renal adenocarcinoma); test: Cell viability analysis, renal cancer 786-O; details: for viability at 10 µM: Homo sapiens, 786-0, 72 h, read-out: The results of antibiotic drug inhibiting cancer cell lines (cell viability analysis), 786-O
[24] = test system: HepG2 (Hepatocellular Carcinoma); test: Cell viability analysis, hepatic cancer HepG2; details: Homo sapiens, HepG2, 72 h
[25] = read-out: The results of antibiotic drug inhibiting cancer cell lines (cell viability analysis), MCF-7, MCF-7, repeated experiment
[26] = read-out: cell viability (survival rate), MCF7, drug 10 μM, 72 hours, WST-1, OD450 nm
[27] = read-out: The results of antibiotic drug inhibiting cancer cell lines (cell viability analysis), H1650, H1650, repeated experiment
[28] = read-out: cell viability (survival rate), H1650, drug 10 μM, 72 hours, WST-1, OD450 nm
[29] = read-out: The results of antibiotic drug inhibiting cancer cell lines (cell viability analysis), A549, A549, repeated experiment
[30] = read-out: cell viability (survival rate), A549, drug 10 μM, 72 hours, WST-1, OD450 nm
[31] = read-out: The results of antibiotic drug inhibiting cancer cell lines (cell viability analysis), MKN-45, MKN-45, repeated experiment
[32] = read-out: cell viability (survival rate), MKN-45, drug 10 μM, 72 hours, WST-1, OD450 nm
[33] = read-out: The results of antibiotic drug inhibiting cancer cell lines (cell viability analysis), AGS, repeated experiment
[34] = read-out: cell viability (survival rate), AGS, drug 10 μM, 72 hours, WST-1, OD450 nm
[35] = read-out: The results of antibiotic drug inhibiting cancer cell lines (cell viability analysis), LoVo, repeated experiment
[36] = read-out: cell viability (survival rate), LoVo, drug 10 μM, 72 hours, WST-1, OD450 nm
[37] = read-out: The results of antibiotic drug inhibiting cancer cell lines (cell viability analysis), TSGH-8301, TSGH-8301, repeated experiment
[38] = read-out: cell viability (survival rate), TSGH, drug 10 μM, 72 hours, WST-1, OD450 nm
[39] = read-out: The results of antibiotic drug inhibiting cancer cell lines (cell viability analysis), HeLa, repeated experiment
[40] = read-out: cell viability (survival rate), HeLa, drug 10 μM, 72 hours, WST-1, OD450 nm
[41] = read-out: The results of antibiotic drug inhibiting cancer cell lines (cell viability analysis), A375, A375, repeated experiment
[42] = read-out: cell viability (survival rate), A375, drug 10 μM, 72 hours, WST-1, OD450 nm
[43] = read-out: The results of antibiotic drug inhibiting cancer cell lines (cell viability analysis), HepG2, HepG2, repeated experiment
[44] = read-out: cell viability (survival rate), HepG2, drug 10 μM, 72 hours, WST-1, OD450 nm

SMILES | viability at 10 µM [1] [%] | viability at 10 µM [2] [%] | viability at 10 µM [3] [%] | viability at 10 µM [4] [%] | viability at 10 µM [5, 25] [%] | viability at 10 µM [5, 26] [%] | viability at 10 µM [6, 27] [%] | viability at 10 µM [6, 28] [%] | viability at 10 µM [7] [%] | viability at 10 µM [8, 29] [%] | viability at 10 µM [9] [%] | viability at 10 µM [12] [%] | viability at 10 µM [13] [%] | viability at 10 µM [14] [%] | viability at 10 µM [15] [%] | viability at 10 µM [17] [%] | viability at 10 µM [18, 35] [%] | viability at 10 µM [18, 36] [%] | inhibition effect on different cancer cell lines [22] | viability at 10 µM [23] [%] | other results
O=c1[nH]c(=O)n([C@H]2C[C@H](O)[C@@H](CO)O2)cc1C(F)(F)F [Trifluridine (Viroptic), Trifluridine] | 73.1 | 88.9 | 55.4 | 33.5 | 79.6 | 36.3 | 78 | 71 | 83.3 | 61.6 | 61.2 | 75.1 | 77.6 | 62.1 | 105 | 66.5 | 62.5 | 72.1 | significant inhibition effect | 37.9 | viability at 10 µM [8, 30]: 36.5%; viability at 10 µM [10]: 81.4%; viability at 10 µM [11, 31]: 89.5%; viability at 10 µM [11, 32]: 43.6%; viability at 10 µM [16, 33]: 83.2%; viability at 10 µM [16, 34]: 64.4%; viability at 10 µM [19, 37]: 86.4%; viability at 10 µM [19, 38]: 51.3%; viability at 10 µM [20, 39]: 86.9%; viability at 10 µM [20, 40]: 51.8%; viability at 10 µM [21, 41]: 59.4%; viability at 10 µM [21, 42]: 48.6%; viability at 10 µM [24, 43]: 85.6%; viability at 10 µM [24, 44]: 90.2%
N=C(N)c1ccc(OCCCCCOc2ccc(C(=N)N)cc2)cc1 [Pentamidine] | 55 | 57.8 | 123 | 50.9 | 60.5 | 68.5 | 68.5 | 65.8 | 45.8 | 35.4 | 43.9 | 79 | 72 | 66.2 | 90.9 | 65.7 | 63.4 | 74.4 | significant inhibition effect | 67.3 | viability at 10 µM [8, 30]: 51.8%; viability at 10 µM [10]: 82.9%; viability at 10 µM [11, 31]: 97.3%; viability at 10 µM [11, 32]: 86.3%; viability at 10 µM [16, 33]: 92.4%; viability at 10 µM [16, 34]: 50.6%; viability at 10 µM [19, 37]: 82.7%; viability at 10 µM [19, 38]: 59.3%; viability at 10 µM [20, 39]: 44.6%; viability at 10 µM [20, 40]: 55.9%; viability at 10 µM [21, 41]: 49.8%; viability at 10 µM [21, 42]: 38.2%; viability at 10 µM [24, 43]: 69.1%; viability at 10 µM [24, 44]: 76.4%
Cc1onc(-c2ccccc2Cl)c1C(=O)N[C@@H]1C(=O)N2[C@@H]1SC(C)(C)[C@@H]2C(=O)[O-].[Na+] [Cloxacillin sodium (Cloxacap)] | – | – | – | – | – | – | – | – | – | – | – | – | – | – | – | – | – | – | – | – | The results of antibiotic drug inhibiting cancer cell lines (cell viability analysis), BxPC-3 ([1]; BxPC-3, repeated experiment): 69.13; The results of antibiotic drug inhibiting cancer cell lines (cell viability analysis), T24 ([3]; T24, repeated experiment): 100.9; The results of antibiotic drug inhibiting cancer cell lines (cell viability analysis), SAS ([4]; SAS, repeated experiment): 70.4; The results of antibiotic drug inhibiting cancer cell lines (cell viability analysis), MCF-7 ([5]; MCF-7, repeated experiment): 103.7; The results of antibiotic drug inhibiting cancer cell lines (cell viability analysis), H1650 ([6]; H1650, repeated experiment): 86.43; The results of antibiotic drug inhibiting cancer cell lines (cell viability analysis), BCC ([7]; BCC, repeated experiment): 116.6; The results of antibiotic drug inhibiting cancer cell lines (cell viability analysis), A549 ([8]; A549, repeated experiment): 98.33; The results of antibiotic drug inhibiting cancer cell lines (cell viability analysis), U2OS ([9]; repeated experiment): 69.87; The results of antibiotic drug inhibiting cancer cell lines (cell viability analysis), TOV-21G ([10]; TOV-21G, repeated experiment): 105.9; The results of antibiotic drug inhibiting cancer cell lines (cell viability analysis), MKN-45 ([11]; MKN-45, repeated experiment): 111.3; The results of antibiotic drug inhibiting cancer cell lines (cell viability analysis), MDA-MB231 ([12]; MDA-MB231, repeated experiment): 101.6; The results of antibiotic drug inhibiting cancer cell lines (cell viability analysis), Hep3B ([13]; repeated experiment): 118.4; The results of antibiotic drug inhibiting cancer cell lines (cell viability analysis), AsPC-1 ([14]; AsPC-1, repeated experiment): 80; The results of antibiotic drug inhibiting cancer cell lines (cell viability analysis), NIH-OVCAR-3 ([15]; NIH-OVCAR-3, repeated experiment): 106.9; The results of antibiotic drug inhibiting cancer cell lines (cell viability analysis), C-33A ([17]; C-33A, repeated experiment): 104.6; The results of antibiotic drug inhibiting cancer cell lines (cell viability analysis), LoVo ([18]; repeated experiment): 98.38; The results of antibiotic drug inhibiting cancer cell lines (cell viability analysis), HeLa ([20]; repeated experiment): 120.1; The results of antibiotic drug inhibiting cancer cell lines (cell viability analysis), A375 ([21]; A375, repeated experiment): 110.7; The results of antibiotic drug inhibiting cancer cell lines (cell viability analysis), 786-O ([23]; 786-O, repeated experiment): 106.1
CC(C)c1nc(CN(C)C(=O)N[C@H](C(=O)N[C@@H](Cc2ccccc2)C[C@H](O)[C@H](Cc2ccccc2)NC(=O)OCc2cncs2)C(C)C)cs1 [Ritonavir] | 89.6 | – | 97.3 | 73.2 | – | – | – | – | 86.4 | – | 87.1 | 102 | 102 | 88.6 | 92.2 | 111 | 90.2 | 82.3 | significant inhibition effect | 102 | –
